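Compound exposure: 48 hours, 5 concentrations, 96-well plates. At the GI50, growth is halved. TGI: concentration producing complete growth inhibition.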
How the values were obtained:
Test in all cases: NCI tumour cell line growth inhibition, 48 h
786-0 renal = tested on: 786-0 renal
A498 renal = tested on: A498 renal
A549 NSCLC = tested on: A549 NSCLC
ACHN renal = tested on: ACHN renal
BT-549 breast = tested on: BT-549 breast
CAKI-1 renal = tested on: CAKI-1 renal
CCRF-CEM leukemia = tested on: CCRF-CEM leukemia
COLO 205 colon = tested on: COLO 205 colon
DU-145 prostate = tested on: DU-145 prostate
EKVX NSCLC = tested on: EKVX NSCLC
HCC-2998 colon = tested on: HCC-2998 colon
HCT-116 colon = tested on: HCT-116 colon
HCT-15 colon = tested on: HCT-15 colon
HL-60(TB) leukemia = tested on: HL-60(TB) leukemia
HOP-62 NSCLC = tested on: HOP-62 NSCLC
HOP-92 NSCLC = tested on: HOP-92 NSCLC
HS 578T breast = tested on: HS 578T breast
HT29 colon = tested on: HT29 colon
IGROV1 ovarian = tested on: IGROV1 ovarian
K-562 leukemia = tested on: K-562 leukemia
KM12 colon = tested on: KM12 colon
LOX IMVI melanoma = tested on: LOX IMVI melanoma
M14 melanoma = tested on: M14 melanoma
MALME-3M melanoma = tested on: MALME-3M melanoma
MCF7 breast = tested on: MCF7 breast
MDA-MB-231 breast = tested on: MDA-MB-231 breast
MDA-MB-435 = tested on: MDA-MB-435
MDA-N = tested on: MDA-N
MOLT-4 leukemia = tested on: MOLT-4 leukemia
NCI-H226 lung = tested on: NCI-H226 lung
NCI-H23 lung = tested on: NCI-H23 lung
NCI-H460 lung = tested on: NCI-H460 lung
NCI-H522 lung = tested on: NCI-H522 lung
NCI/ADR-RES ovarian = tested on: NCI/ADR-RES ovarian
OVCAR-3 ovarian = tested on: OVCAR-3 ovarian
OVCAR-4 ovarian = tested on: OVCAR-4 ovarian
OVCAR-5 ovarian = tested on: OVCAR-5 ovarian
OVCAR-8 ovarian = tested on: OVCAR-8 ovarian
PC-3 prostate = tested on: PC-3 prostate
RPMI-8226 leukemia = tested on: RPMI-8226 leukemia
RXF 393 renal = tested on: RXF 393 renal
SF-268 CNS = tested on: SF-268 CNS
SF-295 CNS = tested on: SF-295 CNS
SF-539 CNS = tested on: SF-539 CNS
SK-MEL-2 melanoma = tested on: SK-MEL-2 melanoma
SK-MEL-28 melanoma = tested on: SK-MEL-28 melanoma
SK-MEL-5 melanoma = tested on: SK-MEL-5 melanoma
SK-OV-3 ovarian = tested on: SK-OV-3 ovarian
SN12C renal = tested on: SN12C renal
SNB-19 CNS = tested on: SNB-19 CNS
SNB-75 CNS = tested on: SNB-75 CNS
SR leukemia = tested on: SR leukemia
SW-620 colon = tested on: SW-620 colon
T-47D breast = tested on: T-47D breast
TK-10 renal = tested on: TK-10 renal
U251 CNS = tested on: U251 CNS
UACC-257 melanoma = tested on: UACC-257 melanoma
UACC-62 melanoma = tested on: UACC-62 melanoma
UO-31 renal = tested on: UO-31 renal

## CC(=O)NCCc1c2c(c3nccc4c3c1Nc1ccccc1-4)OCS2
786-0 renal
  GI50: 3.66 µM
  TGI: 28.9 µM
A498 renal
  GI50: 0.698 µM
  TGI: 19.1 µM
A549 NSCLC
  GI50: 1.29 µM
  TGI: 11.3 µM
ACHN renal
  GI50: 0.199 µM
  TGI: 3.27 µM
BT-549 breast
  GI50: 6.13 µM
  TGI: 19.7 µM
CAKI-1 renal
  GI50: 0.249 µM
  TGI: 8.59 µM
CCRF-CEM leukemia
  GI50: 1.28 µM
COLO 205 colon
  GI50: 2.38 µM
  TGI: 15.6 µM
DU-145 prostate
  GI50: 1.06 µM
  TGI: 2.48 µM
EKVX NSCLC
  GI50: 2.05 µM
  TGI: 16.1 µM
HCC-2998 colon
  GI50: 45.8 µM
  TGI: > 100 µM
HCT-116 colon
  GI50: 2.22 µM
HCT-15 colon
  GI50: 1.26 µM
  TGI: 8.77 µM
HL-60(TB) leukemia
  GI50: 2.97 µM
  TGI: 14.3 µM
HOP-62 NSCLC
  GI50: 3.6 µM
  TGI: 34.1 µM
HOP-92 NSCLC
  GI50: 2.02 µM
  TGI: 21 µM
HS 578T breast
  GI50: 8.19 µM
  TGI: 37 µM
HT29 colon
  GI50: 0.968 µM
  TGI: 4.77 µM
IGROV1 ovarian
  GI50: 0.976 µM
  TGI: 5.61 µM
K-562 leukemia
  GI50: 2.93 µM
  TGI: 56.2 µM
KM12 colon
  GI50: 2.39 µM
  TGI: 10.8 µM
LOX IMVI melanoma
  GI50: 1.26 µM
  TGI: 3.85 µM
M14 melanoma
  GI50: 1 µM
  TGI: 4.57 µM
MALME-3M melanoma
  GI50: 7.28 µM
  TGI: 24.7 µM
MCF7 breast
  GI50: 0.801 µM
  TGI: 8.47 µM
MDA-MB-231 breast
  GI50: 0.594 µM
  TGI: 6.61 µM
MDA-MB-435
  GI50: 3.88 µM
  TGI: 18.9 µM
MDA-N
  GI50: 1.45 µM
  TGI: 15.5 µM
MOLT-4 leukemia
  GI50: 2.38 µM
  TGI: > 100 µM
NCI-H226 lung
  GI50: 11.6 µM
  TGI: 26.5 µM
NCI-H23 lung
  GI50: 1.52 µM
  TGI: 12.3 µM
NCI-H460 lung
  GI50: 0.498 µM
  TGI: 9.98 µM
NCI-H522 lung
  GI50: 0.936 µM
  TGI: 3.11 µM
NCI/ADR-RES ovarian
  GI50: 4.83 µM
  TGI: > 38.2 µM
OVCAR-3 ovarian
  GI50: 1.48 µM
  TGI: 5.67 µM
OVCAR-4 ovarian
  GI50: 1.92 µM
  TGI: 6.02 µM
OVCAR-5 ovarian
  GI50: 5.21 µM
  TGI: 21.3 µM
OVCAR-8 ovarian
  GI50: 2.09 µM
  TGI: > 33.1 µM
PC-3 prostate
  GI50: 2.95 µM
  TGI: 9.33 µM
RPMI-8226 leukemia
  GI50: 0.895 µM
RXF 393 renal
  GI50: 3.02 µM
  TGI: 13.5 µM
SF-268 CNS
  GI50: 1.56 µM
  TGI: 11.4 µM
SF-295 CNS
  GI50: 1.87 µM
  TGI: 15.1 µM
SF-539 CNS
  GI50: 6.63 µM
  TGI: 25.1 µM
SK-MEL-2 melanoma
  GI50: 3 µM
  TGI: 13.9 µM
SK-MEL-28 melanoma
  GI50: 3.45 µM
  TGI: 15.7 µM
SK-MEL-5 melanoma
  GI50: 2.99 µM
  TGI: 14.5 µM
SK-OV-3 ovarian
  GI50: 1.52 µM
  TGI: 18.8 µM
SN12C renal
  GI50: 0.741 µM
  TGI: 4.79 µM
SNB-19 CNS
  GI50: 3.17 µM
  TGI: 18.8 µM
SNB-75 CNS
  GI50: 15.3 µM
  TGI: 70.4 µM
SR leukemia
  GI50: 0.0354 µM
  TGI: > 100 µM
SW-620 colon
  GI50: 0.226 µM
  TGI: 8.15 µM
T-47D breast
  GI50: 2.39 µM
  TGI: 12.8 µM
TK-10 renal
  GI50: 5.56 µM
  TGI: 18.9 µM
U251 CNS
  GI50: 1.72 µM
  TGI: 15.7 µM
UACC-257 melanoma
  GI50: 13.8 µM
  TGI: 27 µM
UACC-62 melanoma
  GI50: 5.5 µM
  TGI: 19.3 µM
UO-31 renal
  GI50: 1.05 µM
  TGI: 6.37 µM

— PubChem BioAssay (NCI)
